According to ChEMBL document CHEMBL1201862, “PubChem BioAssay data set” (2004):
Values belong to the compound of their own block, whether it stands above or below them. Calls of active or inactive are those of the source.

Experiments:
[1] = biological target: Mitogen-activated protein kinase 10 (Homo sapiens, UniProt P53779); experiment: Dose response biochemical screening assay for inhibitors of c-Jun N-Terminal Kinase 3 (JNK3). [Related pubchem assays: 746 ]
[2] = biological target: Lysosomal acid glucosylceramidase (Homo sapiens, UniProt P04062); experiment: Dose response cell-based high throughput screening assay to identify enhancers of beta-glucosidase activity. [Related pubchem assays: 784 ]; type: functional
[3] = biological target: Mothers against decapentaplegic homolog 3 (Homo sapiens, UniProt P84022); experiment: blockers of Smad3 complex formation in lysate – cell lysate, secondary confirmation, chemiluminescent ELISA, HEK293 lysate, dose response (AID 1058); type: functional
[4] = biological target: Heat shock 70 kDa protein 1A (Homo sapiens, UniProt P0DMV8); experiment: inhibition of Hsp70 binding activity – biochemical, fluorescence polarization, SAR follow-up (AID 1072)
[5] = biological target: T1, Dual specificity protein phosphatase 6 (Rattus norvegicus, UniProt Q64346)
T1 sequence (Q64346 whole entry): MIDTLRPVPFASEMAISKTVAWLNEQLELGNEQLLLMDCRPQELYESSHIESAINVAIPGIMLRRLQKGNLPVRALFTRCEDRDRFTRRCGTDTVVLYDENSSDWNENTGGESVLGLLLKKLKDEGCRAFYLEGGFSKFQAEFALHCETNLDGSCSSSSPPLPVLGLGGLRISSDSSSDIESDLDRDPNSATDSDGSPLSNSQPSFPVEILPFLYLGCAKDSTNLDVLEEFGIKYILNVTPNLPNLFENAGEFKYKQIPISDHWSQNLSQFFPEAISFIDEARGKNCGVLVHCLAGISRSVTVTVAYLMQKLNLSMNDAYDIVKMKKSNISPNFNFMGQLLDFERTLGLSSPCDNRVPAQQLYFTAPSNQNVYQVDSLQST

[6] = biological target: T2, Tyrosine-protein phosphatase non-receptor type 7 (Homo sapiens, UniProt P35236); type: functional
T2 sequence (P35236 whole entry): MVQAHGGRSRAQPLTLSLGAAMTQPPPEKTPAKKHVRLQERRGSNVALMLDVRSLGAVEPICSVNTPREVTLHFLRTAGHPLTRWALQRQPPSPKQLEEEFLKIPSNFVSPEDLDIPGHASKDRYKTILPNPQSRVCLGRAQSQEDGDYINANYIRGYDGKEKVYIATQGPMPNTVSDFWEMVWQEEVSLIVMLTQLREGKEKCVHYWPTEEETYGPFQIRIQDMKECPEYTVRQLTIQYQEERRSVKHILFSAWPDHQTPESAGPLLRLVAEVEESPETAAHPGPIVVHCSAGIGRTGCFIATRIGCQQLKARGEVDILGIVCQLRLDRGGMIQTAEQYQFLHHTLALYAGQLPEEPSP

[7] = biological target: Heat shock cognate 71 kDa protein (Homo sapiens, UniProt P11142); experiment: In Vitro Hsc70 Dose Response Fluorescence Polarization Assay. [Related pubchem assays: 1072 ]
[8] = biological target: T1, Dual specificity protein phosphatase 6; type: functional
[9] = biological target: Glyceraldehyde-3-phosphate dehydrogenase (Homo sapiens, UniProt P04406)
[10] = mRNA 3' processing disruption, beta-gal signal increase – luminescence, S. cerevisiae SKY197-pL101, dose response (AID 2525); type: functional, cell-based
[11] = biological target: Ion channel NompC (Danio rerio, UniProt Q7T1G6); experiment: Fluorescence counterscreen assay for TRPML3 agonists: dose response cell-based high-throughput screening assay to identify agonists of the transient receptor potential channel N1 (TRPN1). [Related pubchem assays: 1526, 1424, 1448 ]; type: functional
[12] = biological target: Mucolipin-3 (Homo sapiens, UniProt Q8TDD5); experiment: Dose response cell-based high-throughput screening assay for agonists of the transient receptor potential channel ML3 (TRPML3). [Related pubchem assays: 1526, 1424, 1448 ]; type: functional
[13] = biological target: Neuropeptide Y receptor type 2 (Homo sapiens, UniProt P49146); type: functional, cell-based;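 also: HEK293 cells expressing the receptor and a CNG channel; stimulus was NPY near EC95 followed by isoproterenol to raise cAMP; antagonist potency measured as restoring cAMP signal that NPY suppresses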
[14] = biological target: Neuropeptide Y receptor type 1 (Homo sapiens, UniProt P25929); type: functional;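 also: HEK293 cells with a CNG channel challenged with NPY then isoproterenol; potency as antagonist that reverses NPY suppression of cAMP signal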
[15] = biological target: Cytochrome P450 2C9 (Homo sapiens, UniProt P11712); details: Potency
Chain of Cytochrome P450 2C9 (P11712 whole entry): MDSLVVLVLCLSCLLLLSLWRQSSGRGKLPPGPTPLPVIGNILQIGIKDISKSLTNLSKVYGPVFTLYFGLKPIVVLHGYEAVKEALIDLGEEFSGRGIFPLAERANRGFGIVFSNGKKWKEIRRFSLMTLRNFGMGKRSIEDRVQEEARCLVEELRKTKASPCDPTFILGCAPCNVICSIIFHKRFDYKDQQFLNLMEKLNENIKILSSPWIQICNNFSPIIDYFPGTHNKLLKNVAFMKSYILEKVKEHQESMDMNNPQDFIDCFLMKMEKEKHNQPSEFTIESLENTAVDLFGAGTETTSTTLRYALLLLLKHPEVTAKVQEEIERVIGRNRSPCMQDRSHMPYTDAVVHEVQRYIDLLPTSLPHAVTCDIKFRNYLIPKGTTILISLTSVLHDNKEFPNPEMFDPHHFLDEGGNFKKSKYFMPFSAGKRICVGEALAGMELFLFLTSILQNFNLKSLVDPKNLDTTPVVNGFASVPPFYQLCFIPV

Chain of Heat shock cognate 71 kDa protein (P11142 whole entry): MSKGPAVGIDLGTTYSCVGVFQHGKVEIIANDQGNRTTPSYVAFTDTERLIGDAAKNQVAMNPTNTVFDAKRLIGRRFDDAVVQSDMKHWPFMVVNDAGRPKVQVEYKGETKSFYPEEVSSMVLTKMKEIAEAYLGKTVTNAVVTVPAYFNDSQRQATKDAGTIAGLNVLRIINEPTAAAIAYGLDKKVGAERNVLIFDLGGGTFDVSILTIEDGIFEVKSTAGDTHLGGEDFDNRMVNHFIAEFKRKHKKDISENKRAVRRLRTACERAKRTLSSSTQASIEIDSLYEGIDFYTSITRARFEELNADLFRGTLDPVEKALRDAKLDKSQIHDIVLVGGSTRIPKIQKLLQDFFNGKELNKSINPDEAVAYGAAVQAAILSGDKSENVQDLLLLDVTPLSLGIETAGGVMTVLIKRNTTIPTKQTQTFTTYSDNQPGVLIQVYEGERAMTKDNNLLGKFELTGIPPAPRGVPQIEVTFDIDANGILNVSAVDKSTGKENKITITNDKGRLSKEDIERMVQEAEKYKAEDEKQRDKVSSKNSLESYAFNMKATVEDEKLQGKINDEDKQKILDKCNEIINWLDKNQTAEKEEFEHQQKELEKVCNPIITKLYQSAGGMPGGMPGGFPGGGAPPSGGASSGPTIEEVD
Chain of Glyceraldehyde-3-phosphate dehydrogenase (P04406 whole entry): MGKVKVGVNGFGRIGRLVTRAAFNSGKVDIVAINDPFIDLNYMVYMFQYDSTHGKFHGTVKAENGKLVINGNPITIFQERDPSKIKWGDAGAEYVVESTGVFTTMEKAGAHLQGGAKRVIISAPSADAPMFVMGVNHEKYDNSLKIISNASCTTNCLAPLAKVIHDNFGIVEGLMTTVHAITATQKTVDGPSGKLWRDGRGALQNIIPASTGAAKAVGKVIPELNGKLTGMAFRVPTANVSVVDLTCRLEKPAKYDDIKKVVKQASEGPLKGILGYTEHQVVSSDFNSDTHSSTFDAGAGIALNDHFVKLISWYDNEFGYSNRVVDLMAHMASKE
Chain of Lysosomal acid glucosylceramidase (P04062 whole entry): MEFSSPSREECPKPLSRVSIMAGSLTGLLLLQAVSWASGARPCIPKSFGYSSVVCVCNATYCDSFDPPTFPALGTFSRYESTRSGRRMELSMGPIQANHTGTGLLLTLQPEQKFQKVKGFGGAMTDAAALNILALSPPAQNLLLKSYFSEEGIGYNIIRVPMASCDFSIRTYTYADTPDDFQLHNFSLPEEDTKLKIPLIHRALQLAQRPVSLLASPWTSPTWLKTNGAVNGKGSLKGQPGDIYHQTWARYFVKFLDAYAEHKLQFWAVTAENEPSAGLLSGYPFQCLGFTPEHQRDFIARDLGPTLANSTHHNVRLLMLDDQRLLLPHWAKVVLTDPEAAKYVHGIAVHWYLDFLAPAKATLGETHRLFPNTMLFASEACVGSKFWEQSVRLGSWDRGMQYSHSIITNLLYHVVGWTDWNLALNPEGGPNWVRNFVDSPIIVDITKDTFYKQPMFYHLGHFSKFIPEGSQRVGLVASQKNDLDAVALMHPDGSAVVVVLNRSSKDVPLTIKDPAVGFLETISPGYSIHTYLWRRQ
Chain of Mitogen-activated protein kinase 10 (P53779 whole entry): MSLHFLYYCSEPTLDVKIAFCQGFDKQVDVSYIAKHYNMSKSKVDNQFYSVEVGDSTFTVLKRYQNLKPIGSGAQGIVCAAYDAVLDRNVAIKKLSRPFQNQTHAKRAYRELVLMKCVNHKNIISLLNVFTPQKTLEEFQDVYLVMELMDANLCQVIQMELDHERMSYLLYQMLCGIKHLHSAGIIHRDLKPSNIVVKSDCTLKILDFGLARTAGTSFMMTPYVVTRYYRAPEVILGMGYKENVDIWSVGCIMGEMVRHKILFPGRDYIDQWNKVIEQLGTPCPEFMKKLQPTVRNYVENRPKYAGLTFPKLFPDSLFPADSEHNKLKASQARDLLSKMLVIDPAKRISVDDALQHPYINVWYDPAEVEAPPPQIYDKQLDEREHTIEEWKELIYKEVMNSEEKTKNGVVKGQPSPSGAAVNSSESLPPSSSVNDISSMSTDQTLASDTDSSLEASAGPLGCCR
Chain of Ion channel NompC (Q7T1G6 whole entry): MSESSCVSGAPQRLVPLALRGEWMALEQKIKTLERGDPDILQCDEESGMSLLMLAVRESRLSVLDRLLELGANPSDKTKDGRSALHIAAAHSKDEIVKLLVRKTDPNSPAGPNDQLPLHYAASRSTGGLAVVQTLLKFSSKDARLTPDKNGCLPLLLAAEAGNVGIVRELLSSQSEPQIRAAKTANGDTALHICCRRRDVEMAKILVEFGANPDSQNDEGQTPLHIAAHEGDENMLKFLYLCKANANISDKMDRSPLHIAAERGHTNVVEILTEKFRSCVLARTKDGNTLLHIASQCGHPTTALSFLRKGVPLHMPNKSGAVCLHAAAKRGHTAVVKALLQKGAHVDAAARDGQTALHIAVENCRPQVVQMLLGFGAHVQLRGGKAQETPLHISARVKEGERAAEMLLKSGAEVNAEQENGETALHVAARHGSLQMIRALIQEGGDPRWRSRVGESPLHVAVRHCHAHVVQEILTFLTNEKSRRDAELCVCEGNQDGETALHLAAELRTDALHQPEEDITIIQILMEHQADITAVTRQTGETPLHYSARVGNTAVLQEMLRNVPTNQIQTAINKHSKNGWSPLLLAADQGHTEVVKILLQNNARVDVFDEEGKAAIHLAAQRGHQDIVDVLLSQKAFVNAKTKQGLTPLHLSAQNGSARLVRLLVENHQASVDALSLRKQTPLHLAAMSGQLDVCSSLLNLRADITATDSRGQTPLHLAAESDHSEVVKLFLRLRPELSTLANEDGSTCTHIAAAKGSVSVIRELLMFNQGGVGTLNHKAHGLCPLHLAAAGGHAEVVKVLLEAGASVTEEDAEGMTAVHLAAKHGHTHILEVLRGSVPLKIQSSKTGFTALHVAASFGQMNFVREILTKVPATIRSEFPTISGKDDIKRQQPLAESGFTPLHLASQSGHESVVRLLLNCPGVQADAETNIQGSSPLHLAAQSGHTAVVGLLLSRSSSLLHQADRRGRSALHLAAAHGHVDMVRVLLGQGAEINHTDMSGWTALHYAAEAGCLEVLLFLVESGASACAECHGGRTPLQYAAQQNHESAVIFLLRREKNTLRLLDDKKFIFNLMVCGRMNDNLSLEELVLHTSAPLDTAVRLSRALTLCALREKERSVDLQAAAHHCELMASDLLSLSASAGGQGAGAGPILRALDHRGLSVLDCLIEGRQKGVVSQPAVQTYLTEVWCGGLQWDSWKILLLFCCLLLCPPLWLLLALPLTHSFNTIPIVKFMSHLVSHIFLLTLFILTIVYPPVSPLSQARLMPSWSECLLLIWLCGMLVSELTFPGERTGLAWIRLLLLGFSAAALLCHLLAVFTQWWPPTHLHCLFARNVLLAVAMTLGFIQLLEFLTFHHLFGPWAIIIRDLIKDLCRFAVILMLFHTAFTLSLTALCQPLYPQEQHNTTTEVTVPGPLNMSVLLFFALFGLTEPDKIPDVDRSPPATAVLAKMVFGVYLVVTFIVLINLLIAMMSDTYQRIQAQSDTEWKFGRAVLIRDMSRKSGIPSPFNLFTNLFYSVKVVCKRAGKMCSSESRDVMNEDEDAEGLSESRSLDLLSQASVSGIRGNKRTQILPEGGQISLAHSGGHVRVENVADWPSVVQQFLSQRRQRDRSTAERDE
Chain of Neuropeptide Y receptor type 1 (P25929 whole entry): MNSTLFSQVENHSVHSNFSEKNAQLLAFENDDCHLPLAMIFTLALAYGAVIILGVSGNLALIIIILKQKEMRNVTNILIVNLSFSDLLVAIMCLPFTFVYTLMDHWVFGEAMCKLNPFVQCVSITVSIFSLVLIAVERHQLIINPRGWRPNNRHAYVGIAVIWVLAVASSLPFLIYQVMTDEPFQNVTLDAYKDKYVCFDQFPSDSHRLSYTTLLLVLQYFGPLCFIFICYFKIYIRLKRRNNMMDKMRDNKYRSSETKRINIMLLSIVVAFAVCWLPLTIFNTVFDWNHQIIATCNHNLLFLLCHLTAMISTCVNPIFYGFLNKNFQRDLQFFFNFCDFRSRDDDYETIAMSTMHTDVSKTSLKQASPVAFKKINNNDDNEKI
Chain of Mothers against decapentaplegic homolog 3 (P84022 whole entry): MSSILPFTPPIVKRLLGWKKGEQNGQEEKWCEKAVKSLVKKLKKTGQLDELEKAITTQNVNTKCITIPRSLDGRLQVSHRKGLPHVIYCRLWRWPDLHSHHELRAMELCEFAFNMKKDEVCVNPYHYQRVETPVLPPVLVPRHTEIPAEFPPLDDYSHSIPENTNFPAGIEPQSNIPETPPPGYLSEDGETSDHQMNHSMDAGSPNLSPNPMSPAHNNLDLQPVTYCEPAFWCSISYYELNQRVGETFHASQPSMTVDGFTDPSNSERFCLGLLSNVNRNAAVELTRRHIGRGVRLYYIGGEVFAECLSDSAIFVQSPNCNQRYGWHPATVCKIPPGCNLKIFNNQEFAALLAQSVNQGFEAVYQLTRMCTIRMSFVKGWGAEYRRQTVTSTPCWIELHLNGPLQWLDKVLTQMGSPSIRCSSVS

Structure (SMILES): Cc1ccnc(Nc2nc(-c3c(C)nc4sccn34)cs2)c1
IC50 [1]: > 93.1 µM (not active)
EC50 [2]: > 50 µM (not active)

Structure (SMILES): Oc1cc2c(cc1C(c1ccc(Cl)cc1)N1CCOCC1)OCO2 (stereo not given)
IC50 [3]: 10.3 µM (not active)

Structure (SMILES): CCN1/C(=C/C=C/c2sc3ccccc3[n+]2CC)Sc2ccccc21 [ALAZANINE]
EC50 [10]: 243 µM (active)

Structure (SMILES): COc1ccc(-c2nc(C#N)c(NC(C)c3ccccc3)o2)cc1OC (stereo not given)
IC50 [13]: 3.55 µM (active)
IC50 [14]: 7.77 µM (active)

Structure (SMILES): CC(C)CCN1CCc2nc(COc3ccccc3)c3c(c2C1)COC(C)C3 (stereo not given)
AC50 [15]: 6.31 µM (inconclusive)

More lines, now with the values ahead:

IC50 [4]: 20.6 µM (active)
IC50 [5]: 33.5 µM (active)
IC50 [6]: 13.2 µM (active)
IC50 [7]: > 100 µM (not active)
IC50 [8]: 32 µM (active)
IC50 [9]: > 100 µM (not active)
Structure (SMILES): COc1ccc2c(c1)C1C=CCC1C(C(=O)O)N2 (stereo not given)

EC50 [11]: > 29.9 µM (not active)
EC50 [12]: 3.06 µM (active)
Structure (SMILES): COc1cc(S(=O)(=O)N(C)C2CCCCC2)c(C)cc1C
